Broadly, the EC50 is the concentration that produces a half-maximal response.

Molecules are shown by their SMILES.

Experimental findings from patent publication US11912686B2 (Gilead Sciences, Inc., priority 2020, dated 2024) are described below.

Sequence of human LPAR1 (Q92633 whole entry): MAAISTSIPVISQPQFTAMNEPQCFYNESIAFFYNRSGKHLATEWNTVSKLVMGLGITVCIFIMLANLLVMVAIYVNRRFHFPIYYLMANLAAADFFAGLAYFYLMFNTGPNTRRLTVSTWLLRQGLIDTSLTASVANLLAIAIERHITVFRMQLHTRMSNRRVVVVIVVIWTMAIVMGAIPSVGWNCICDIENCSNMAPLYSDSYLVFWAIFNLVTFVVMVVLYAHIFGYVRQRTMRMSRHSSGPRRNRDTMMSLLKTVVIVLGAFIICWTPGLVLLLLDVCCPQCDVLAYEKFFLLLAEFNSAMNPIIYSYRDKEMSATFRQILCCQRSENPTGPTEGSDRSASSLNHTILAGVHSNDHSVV

The assay has as its target human LPAR1 (Homo sapiens (Human), UniProt Q92633). Put plainly: LPAR1 intracellular calcium mobilization assay (antagonist mode, FLIPR). The class given is cell-based. Particulars: CHO-K1 EDG2 cells expressing human LPAR1, LPA 18:2 at EC80 (100 nM), test compound 0.5 nM to 10 μM. For orientation: Calcium assays in cells follow changes in intracellular calcium, usually with a dye or a luminescent sensor.
Turning to `C[C@@H](OC(=O)Nc1c(-c2ccc(NC(=O)[C@H]3C[C@@H](C#N)C3)cn2)nnn1C)c1cccnc1Cl` [Compound 128, (R)-1-(2-chloropyridin-3-yl)ethyl (4-(5-((1s,3S)-3-cyanocyclobutane-1-carboxamido)pyridin-2-yl)-1-methyl-1H-1,2,3-triazol-5-yl)carbamate], the EC50 came out at 309 nM. The same measure for `C[C@@H](OC(=O)Nc1c(-c2ccc(NC(=O)[C@@H]3C[C@H]3C(F)(F)F)cn2)nnn1C)c1cc(F)cnc1F` (mixture of isomers) [Compound 209, (R)-1-(2,5-difluoropyridin-3-yl)ethyl (1-methyl-4-(5-((1RS,2RS)-2-(trifluoromethyl)cyclopropane-1-carboxamido)pyridin-2-yl)-1H-1,2,3-triazol-5-yl)carbamate]: 17.7 nM; for `C[C@@H](OC(=O)Nc1c(-c2ccc(NC(=O)c3cc(C(F)(F)F)cnc3F)cn2)nnn1C)c1cc(F)cnc1F` [Compound 275, (R)-1-(2,5-difluoropyridin-3-yl)ethyl (4-(5-(2-fluoro-5-(trifluoromethyl)nicotinamido)pyridin-2-yl)-1-methyl-1H-1,2,3-triazol-5-yl)carbamate]: 241 nM. Next, `C[C@@H](OC(=O)Nc1c(-c2ccc(NC(=O)C3CC4(COC4)C3)cn2)nnn1C)c1cccnc1Cl` [Compound 42, (R)-1-(2-chloropyridin-3-yl)ethyl (4-(5-(2-oxaspiro[3.3]heptane-6-carboxamido)pyridin-2-yl)-1-methyl-1H-1,2,3-triazol-5-yl)carbamate]: 201 nM; `COCC(=O)Nc1ccc(-c2nnn(C)c2NC(=O)O[C@H](C)c2cccnc2Cl)nc1` [Compound 31, (R)-1-(2-chloropyridin-3-yl)ethyl (4-(5-(2-methoxyacetamido)pyridin-2-yl)-1-methyl-1H-1,2,3-triazol-5-yl)carbamate]: 2330 nM.

For `Cc1nonc1C(=O)Nc1ccc(-c2nnn(C)c2NC(=O)O[C@H](C)c2cc(F)cnc2F)nc1` [Compound 239, (R)-1-(2,5-difluoropyridin-3-yl)ethyl (1-methyl-4-(5-(4-methyl-1,2,5-oxadiazole-3-carboxamido)pyridin-2-yl)-1H-1,2,3-triazol-5-yl)carbamate], the EC50 was 62.3 nM. Next, `C[C@@H](OC(=O)Nc1c(-c2ccc(NC(=O)C3(C#N)CC34CCC4)cn2)nnn1C)c1cccnc1Cl` (stereo partly drawn) [Compound 74, (R)-1-(2-chloropyridin-3-yl)ethyl (4-(5-(1-cyanospiro[2.3]hexane-1-carboxamido)pyridin-2-yl)-1-methyl-1H-1,2,3-triazol-5-yl)carbamate]: 1340 nM; `C[C@@H](OC(=O)Nc1c(-c2ccc(NC(=O)C3(C#N)CC(O)C3)cn2)nnn1C)c1cccnc1Cl` (stereo partly drawn) [Compound 135, (R)-1-(2-chloropyridin-3-yl)ethyl (4-(5-(1-cyano-3-hydroxycyclobutane-1-carboxamido)pyridin-2-yl)-1-methyl-1H-1,2,3-triazol-5-yl)carbamate]: 726 nM; `C[C@@H](OC(=O)Nc1c(-c2ccc(NC(=O)C3CNC3)cn2)nnn1C)c1cccnc1Cl` [Compound 38, (R)-1-(2-chloropyridin-3-yl)ethyl (4-(5-(azetidine-3-carboxamido)pyridin-2-yl)-1-methyl-1H-1,2,3-triazol-5-yl)carbamate]: 10000 nM. The same measure for `CO[C@H]1C[C@@H](C(=O)Nc2ccc(-c3nnn(C)c3NC(=O)O[C@H](C)c3cccnc3Cl)nc2)C1` [Compound 157, (R)-1-(2-chloropyridin-3-yl)ethyl (4-(5-((1s,3S)-3-methoxycyclobutane-1-carboxamido)pyridin-2-yl)-1-methyl-1H-1,2,3-triazol-5-yl)carbamate]: 74.5 nM. The same measure for `C[C@@H](OC(=O)Nc1c(-c2ccc(NC(=O)C34CC(C#N)(C3)C4)cn2)nnn1C)c1cccnc1Cl` [Compound 64, (R)-1-(2-chloropyridin-3-yl)ethyl (4-(5-(3-cyanobicyclo[1.1.1]pentane-1-carboxamido)pyridin-2-yl)-1-methyl-1H-1,2,3-triazol-5-yl)carbamate]: 76.4 nM.
